Results on eleven compounds are retold here after publication PMC11051924, “Design, Synthesis, and Biological Evaluation of Novel Tetrahydroacridin Hybrids with Sulfur-Inserted Linkers as Potential Multitarget Agents for Alzheimer’s Disease” (Molecules, 2024).

The subject of data set [1] is GSK-3β. Conditions: cited from earlier work.
Data set [2] addresses T1, AChE (Electrophorus electricus, UniProt O42275). Nature of the data set: biochemical. Details: species or system electric eel. As for the experimental part:
The inhibitory activities of the compounds on AChE were determined by an Ellman assay. First, 20 μL of phosphate buffer was added to a 96-well plate. Then, compounds of different concentrations (20 μL), 100μL of 1mM DTNB, and 40 μL of AChE solution (2 U/mL) were added successively. The plate was incubated at 37 °C for 15 min. Briefly, 20 μL of acetylthiocholine iodide (1 mM) was added to the mixed solution. The plate was incubated at 25 °C for 20 min. The reaction was terminated by adding 3% SDS to each well. […] The inhibition of each compound was calculated using the formula (1 − Ai/Ac) × 100, where Ai and Ac represent the absorbance of the reaction mixture in the presence and absence of inhibitors, respectively. The IC50 values of all target compounds were calculated by using Graph Pad Prism 9.5.

Data set [3] concerns the target T2, recombinant human GSK-3β (Homo sapiens, UniProt P49841).
T2 construct: purchased
Kind of data set: GSK-3β inhibition (luciferin kinase detection). In kind it is biochemical. As for the experimental part:
Add ATP and substrate polypeptide to the reaction template for GSK-3β under the most suitable enzyme reaction system and conditions, let the enzyme react with ATP and substrate polypeptide, and use luciferin kinase detection technology to detect enzyme activity. All the compounds to be tested were prepared by adding DMSO to a solution with a concentration of 10^−2 mol/L and diluted with PBS to the required concentration when used; the purchased GSK-3β was diluted from 1600 ng/μL to 2 ng/μL, ready for use.

For data set [4], the system named is HepG2 cells. Kind of data set: Hepatotoxicity on HepG2 cells (MTT assay). In kind it is cell-based. Conditions: concentrations of up to 20 μM. As for the experimental part: HepG2 cells were cultured in DMEM supplemented with 10% FBS and 100 U/mL of penicillin-streptomycin (Thermo, Waltham, MA, USA) at 37 °C in a humidified atmosphere containing 5% CO2.
HepG2 cells were seeded in 96-well plates at a density of 2 × 10^4 cells per well. After 24 h, different concentrations of tacrine or compound 18a (1 μM, 5 μM, 10 μM, and 20 μM) and DMSO were added to the wells. MTT assay was performed, and the survival percentage of cells was calculated.
In general terms: Tetrazolium dyes change colour on reduction, which living cells bring about.

Data set [5] concerns the target T1, AChE. Kind of data set: Kinetic study of AChE inhibition (Lineweaver–Burk). In kind it is biochemical. Conditions: Lineweaver–Burk plots; 0.02, 0.04, 0.08 μM inhibitor. As for the experimental part: In 96-well plates, 20μL of PBS, compound 18a (20 μL) with three final concentrations (0.02 μM, 0.04 μM, and 0.08 μM), 20 μL of acetylthiocholine iodide (50–300 μM), and 40 μL of AChE (2 U/mL) were added successively. After incubation at 37 °C for 15 min, 100 μL of DTNB (1 mM) was added. A microplate reader (Thermo, Waltham, MA, USA) was used to record the absorbance at 405 nm. Lineweaver–Burk reciprocal plots were created by graphing 1/V vs. 1/[S] by using GraphPad Prism 9.5.

For data set [6], the system named is SH-SY5Y neuroblastoma cells. Nature of the data set: Cytotoxicity on SH-SY5Y cells (MTT assay). In kind it is cell-based, human. Conditions: concentrations of up to 25 μM. As for the experimental part:
SH-SY5Y cells were cultured in Dulbecco’s modified Eagle medium (DMEM) with F12 (KeyGEN BioTECH, Nanjing, China), supplemented with 10% (v/v) fetal bovine serum (FBS) (Sen Bei Jia) and antibiotics (penicillin streptomycin) (KeyGEN BioTECH, Nanjing, China). Cells were kept at 37 °C and 5% CO2 in a humidified atmosphere in a cell culture incubator and passaged twice a week.
The cytotoxicity assay on SH-SY5Y cells was the same as in our previous studies. Cells were seeded in a 96-well plate, and the medium was removed after 24 h. Compound 18a (3.125 μM, 6.25 μM, 12.5 μM, and 25 μM) was added to each well. After treatment for 24 h, 10 μL of 3-(4,5-dimethyl-2-thiazolyl)-2,5-diphenyl-2-H-tetrazolium bromide was added to each well. After incubation at 37 °C for 4 h, 100 μL of DMSO was added, and the absorbance of the mixture was determined at 590 nm using a microplate reader (FC/K3, Thermo, Waltham, MA, USA). We used the formula Ae/Ab 100% to calculate the survival rate, where Ae and Ab represent the absorbance in the presence and absence of the tested drugs. Each experiment was carried out three times in total.

Data set [7] concerns the target T1, AChE. Details: method as in PMID 34024109. Conditions: value of the design leads (abstract, Figure 2); cited from earlier work.
Where [8] appears, read: AChE from electric eel, mean of three independent determinations, read-out: IC50 (μM) ± SEM AChE.
[9] abbreviates: recombinant human GSK-3β, mean of three independent determinations, read-out: IC50 (μM) ± SEM GSK-3β.

Each structure is given as a SMILES string. “Also recorded” adds a separate entry of the source. Like-named read-outs stand apart in the source and are kept apart here.

T1 sequence (O42275 24-633): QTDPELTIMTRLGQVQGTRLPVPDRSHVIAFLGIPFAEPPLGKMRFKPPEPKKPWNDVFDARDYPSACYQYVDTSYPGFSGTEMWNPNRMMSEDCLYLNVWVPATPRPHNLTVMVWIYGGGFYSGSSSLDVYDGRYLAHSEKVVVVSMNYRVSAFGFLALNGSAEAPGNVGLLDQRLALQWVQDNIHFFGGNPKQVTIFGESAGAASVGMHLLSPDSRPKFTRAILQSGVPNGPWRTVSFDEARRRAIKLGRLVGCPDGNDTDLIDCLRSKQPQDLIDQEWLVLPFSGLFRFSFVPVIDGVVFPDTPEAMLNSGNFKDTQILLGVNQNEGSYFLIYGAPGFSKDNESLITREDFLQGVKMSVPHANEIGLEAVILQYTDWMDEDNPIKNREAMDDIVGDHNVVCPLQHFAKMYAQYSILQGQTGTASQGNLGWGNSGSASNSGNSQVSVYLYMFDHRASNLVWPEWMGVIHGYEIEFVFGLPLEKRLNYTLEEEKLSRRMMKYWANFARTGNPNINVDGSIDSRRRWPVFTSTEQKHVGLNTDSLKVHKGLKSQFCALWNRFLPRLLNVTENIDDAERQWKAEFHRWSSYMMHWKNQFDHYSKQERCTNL
T2 sequence (P49841 whole entry): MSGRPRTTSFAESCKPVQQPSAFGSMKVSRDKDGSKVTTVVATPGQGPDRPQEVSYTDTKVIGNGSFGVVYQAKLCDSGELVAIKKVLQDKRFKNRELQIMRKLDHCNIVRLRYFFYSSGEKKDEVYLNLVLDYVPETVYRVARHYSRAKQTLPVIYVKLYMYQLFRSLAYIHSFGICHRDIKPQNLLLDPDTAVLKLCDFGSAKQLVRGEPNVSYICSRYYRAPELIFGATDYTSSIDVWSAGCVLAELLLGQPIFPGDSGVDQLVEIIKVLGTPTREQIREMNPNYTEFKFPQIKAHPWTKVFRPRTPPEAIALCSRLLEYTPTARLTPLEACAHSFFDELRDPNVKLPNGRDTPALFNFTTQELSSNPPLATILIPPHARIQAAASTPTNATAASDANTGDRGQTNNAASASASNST

A word on the IC50: it is the midpoint of a concentration-inhibition curve. `Cc1nc(-c2ccncc2)cc(=O)[nH]1` [Compound 5]: the IC50 in data set [1] (pyrimidone lead compound 5) was 3000 nM.

For `Cn1c(SCCNc2c3c(nc4cc(Cl)ccc24)CCCC3)nc(-c2ccncc2)cc1=O` [Compound 16a, 2-((2-((6-Chloro-1,2,3,4-tetrahydroacridin-9-yl)amino)ethyl)thio)-3-methyl-6-(pyridin-4-yl)pyrimidin-4(3H)-one], the IC50 in data set [2] (setting [8]) is 2.3 ± 0.14 µM; in data set [3] (setting [9]), 15.1 ± 0.9 µM.

Take `Cn1c(SCCNc2c3c(nc4ccc(Br)cc24)CCCC3)nc(-c2ccncc2)cc1=O` [Compound 16b, 2-((2-((7-Bromo-1,2,3,4-tetrahydroacridin-9-yl)amino)ethyl)thio)-3-methyl-6-(pyridin-4-yl)pyrimidin-4(3H)-one]: the IC50 came to 20 ± 1.5 µM in data set [2] (setting [8]) and 38.5 ± 0.7 µM in data set [3] (setting [9]).

Regarding `Cn1c(NCCSSCCNc2c3c(nc4ccc(Br)cc24)CCCC3)nc(-c2ccncc2)cc1=O` [Compound 18b, 2-((2-((2-((7-Bromo-1,2,3,4-tetrahydroacridin-9-yl)amino)ethyl)disulfanyl)ethyl)amino)-3-methyl-6-(pyridin-4-yl)pyrimidin-4(3H)-one], the values for the IC50 in data set [2] (setting [8]) and in data set [3] (setting [9]) were 2.13 ± 0.11 µM and 0.37 ± 0.02 µM, respectively.

For the compound `Cn1c(SCCNc2c3c(nc4ccc(Cl)cc24)CCCC3)nc(-c2ccncc2)cc1=O` [Compound 16c, 2-((2-((7-Chloro-1,2,3,4-tetrahydroacridin-9-yl)amino)ethyl)thio)-3-methyl-6-(pyridin-4-yl)pyrimidin-4(3H)-one], the IC50 in data set [2] (setting [8]) was 10.3 ± 0.7 µM; in data set [3] (setting [9]), 2.28 ± 0.07 µM.

In the case of `Cn1c(SCCNc2c3c(nc4ccc(Cl)cc24)CCCC3)nc(-c2ccncc2F)cc1=O` [Compound 16f, 2-((2-((7-Chloro-1,2,3,4-tetrahydroacridin-9-yl)amino)ethyl)thio)-6-(3-fluoropyridin-4-yl)-3-methylpyrimidin-4(3H)-one], the values for the IC50 in data set [2] and in data set [3] were 16.5 ± 0.8 µM and 2.44 ± 0.06 µM, respectively.

Regarding `Cn1c(NCCSSCCNc2c3c(nc4cc(Cl)ccc24)CCCC3)nc(-c2ccncc2)cc1=O` [Compound 18a, 2-((2-((2-((6-Chloro-1,2,3,4-tetrahydroacridin-9-yl)amino)ethyl)disulfanyl)ethyl)amino)-3-methyl-6-(pyridin-4-yl)pyrimidin-4(3H)-one], the IC50 came to 0.047 ± 0.002 µM in data set [2] (setting [8]) and 0.93 ± 0.08 µM in data set [3] (setting [9]). Further, in data set [4], the “hepatotoxicity on HepG2 cells” value is reported as “no significant hepatotoxicity”. For the same compound, the “inhibition mode against AChE” value in data set [5] was “mixed type”. In addition, the “toxicity to SH-SY5Y neuroblastoma cells” value in data set [6] is reported as “lack of toxicity; also recorded: no toxicity”.

As to `Cn1c(NCCSSCCNc2c3c(nc4ccc(Cl)cc24)CCCC3)nc(-c2ccncc2)cc1=O` [Compound 18c, 2-((2-((2-((7-Chloro-1,2,3,4-tetrahydroacridin-9-yl)amino)ethyl)disulfanyl)ethyl)amino)-3-methyl-6-(pyridin-4-yl)pyrimidin-4(3H)-one], the half-inhibitory concentration (IC50) came out at 2.24 ± 0.13 µM in data set [2] (setting [8]) and 0.42 ± 0.03 µM in data set [3] (setting [9]).

Take `Cn1c(NCCCCCCCNc2c3c(nc4cc(Cl)ccc24)CCCC3)nc(-c2ccncc2F)cc1=O` [Compound 7]: the figures for the IC50 in data set [7] and in data set [1] (previous hybrid compound 7) were 51 nM and 89 nM, respectively.

For the compound `Cn1c(SCCNc2c3c(nc4ccc(Br)cc24)CCCC3)nc(-c2ccncc2F)cc1=O` [Compound 16e, 2-((2-((7-Bromo-1,2,3,4-tetrahydroacridin-9-yl)amino)ethyl)thio)-6-(3-fluoropyridin-4-yl)-3-methylpyrimidin-4(3H)-one], the IC50 in data set [2] (setting [8]) came to 15.3 ± 0.9 µM; in data set [3] (setting [9]) it was 0.94 ± 0.02 µM.

Turning to `Cn1c(SCCNc2c3c(nc4cc(Cl)ccc24)CCCC3)nc(-c2ccncc2F)cc1=O` [Compound 16d, 2-((2-((6-Chloro-1,2,3,4-tetrahydroacridin-9-yl)amino)ethyl)thio)-6-(3-fluoropyridin-4-yl)-3-methylpyrimidin-4(3H)-one], the IC50 in data set [2] (setting [8]) came to 1.89 ± 0.21 µM; in data set [3] (setting [9]), 1.69 ± 0.09 µM.
